Data set [1] relates to RAW264.7. Description: Antiinflammatory activity against LPS-induced mouse RAW264.7 cells assessed as inhibition of iNOS protein expression pretreated for 1 hr followed by LPS stimulation and measured after 24 hrs by Western blot analysis. It counts as functional, cell-based. To be noted: dose 2.5-10 µM, time 25.0 hrs.
Data set [2] deals with RAW264.7. Put plainly: Antiinflammatory activity against LPS-induced mouse RAW264.7 cells assessed as inhibition of cPLA2 protein expression pretreated for 1 hr followed by LPS stimulation and measured after 24 hrs by Western blot analysis. It counts as functional, cell-based. To be noted: dose 2.5-10 µM, time 25.0 hrs.
Data set [3] relates to RAW264.7. Description: Antiinflammatory activity against LPS-induced mouse RAW264.7 cells assessed as inhibition of phosphorylated p38 MAPK protein expression pretreated for 1 hr followed by LPS stimulation and measured after 24 hrs by Western blot analysis. The data set is classed as functional, cell-based. The conditions noted are these: dose 2.5-10 µM, time 25.0 hrs.
Data set [4] relates to Rattus norvegicus. Put plainly: Antiarthritic activity in Freund's complete adjuvant induced Lewis rat model of arthritis assessed as inhibition of left hind paw edema at 20 mg/kg, po administered every 24 to 48 hrs for 28 days post immunization starting from day 8 post immunization. The conditions noted are these: time 21.0 day. The data set is classed as functional, organism-based.

In data set [5] the test system is Rattus norvegicus. Description: Antiarthritic activity in Freund's complete adjuvant induced Lewis rat model of arthritis assessed as reduction in joint deformities at 20 mg/kg, po administered every 24 to 48 hrs for 28 days post immunization starting from day 8 post immunization. It counts as functional, organism-based. The conditions noted are these: time 21.0 day.

For data set [6], the system named is Rattus norvegicus. Description: Antiarthritic activity in Freund's complete adjuvant induced Lewis rat model of arthritis assessed as reduction in joint deformities induced walking and polyarthritis symptoms at 20 mg/kg, po administered every 24 to 48 hrs for 28 days post immunization starting from day 8 post immunization. It counts as functional, organism-based. To be noted: time 21.0 day.

For data set [7], the species on record is Mus musculus. Description: Analgesic activity in mouse model assessed as reduction in acetic acid induced inflammatory pain. It counts as functional, organism-based.
In data set [8] the test system is Rattus norvegicus. Description: Antiarthritic activity in Freund's complete adjuvant induced Lewis rat model of arthritis assessed as modulation of immune system responses by measuring reduction in spleen weight at 20 mg/kg, po administered every 24 to 48 hrs for 28 days post immunization starting from day 8 post immunization. The data set is classed as functional, organism-based. The conditions noted are these: time 21.0 day.

The subject of data set [9] is Rattus norvegicus. Put plainly: Antiarthritic activity in Freund's complete adjuvant induced Lewis rat model of arthritis assessed as reduction in IL-6 level in serum at 20 mg/kg, po administered every 24 to 48 hrs for 28 days post immunization starting from day 8 post immunization by ELISA. The data set is classed as functional, organism-based. The conditions noted are these: time 21.0 day.

In data set [10] the test system is Rattus norvegicus. Description: Immunomodulatory activity in Freund's complete adjuvant induced Lewis rat model of arthritis assessed as reduction in IL-17 level in serum at 20 mg/kg, po administered every 24 to 48 hrs for 28 days post immunization starting from day 8 post immunization by ELISA. The data set is classed as functional, organism-based. To be noted: time 21.0 day.

The species entered for data set [11] is Mus musculus. Description: Antiinflammatory activity in mouse model of cotton pellet implantation-induced granuloma. It counts as functional, organism-based.
Data set [12] has as its system Rattus norvegicus. Put plainly: Immunomodulatory activity in Freund's complete adjuvant induced Lewis rat model of arthritis assessed as increase in CD4positive CD25positive Treg cells in peripheral blood at 20 mg/kg, po administered every 24 hrs for 28 days post immunization starting from day 8 post immunization by flow cytometry analysis. It counts as functional, organism-based. To be noted: time 21.0 day.

The subject of data set [13] is Rattus norvegicus. Description: Antiarthritic activity in Freund's complete adjuvant induced Lewis rat model of arthritis assessed as reduction in joint tissue damage by measuring reduction in synovial hyperplasia at 20 mg/kg, po administered every 24 hrs for 28 days post immunization starting from day 8 post immunization by H and E staining based analysis. The data set is classed as functional, organism-based. The conditions noted are these: time 21.0 day.

Data set [14] deals with Rattus norvegicus. Put plainly: Antiarthritic activity in Freund's complete adjuvant induced Lewis rat model of arthritis assessed as reduction in joint tissue damage by measuring reduction in cartilage degeneration at 20 mg/kg, po administered every 24 hrs for 28 days post immunization starting from day 8 post immunization by H and E staining based analysis. The conditions noted are these: time 21.0 day. The data set is classed as functional, organism-based.

Data set [15] is described as follows: Toxicity in male Wistar rat assessed as gastrointestinal damage by measuring number of ulcers at 50 mg/kg administered by gavage and measured after 6 hrs (reference value: 0). The data set is classed as organism-based. The conditions noted are these: in vivo, po.
A short description of data set [16]: Toxicity in male Wistar rat assessed as gastrointestinal damage by measuring level-1 ulcers with <1 mm area at 50 mg/kg administered by gavage and measured after 6 hrs. The conditions noted are these: in vivo, po. It counts as organism-based.
The nature of data set [17]: Toxicity in male Wistar rat assessed as gastrointestinal damage by measuring level-1 ulcers with <1 mm area at 100 mg/kg administered by gavage and measured after 6 hrs. The data set is classed as organism-based. To be noted: in vivo, po.
Data set [18] in a line: Toxicity in male Wistar rat assessed as gastrointestinal damage by measuring level-2 ulcers with 1 to 3 mm area at 100 mg/kg administered by gavage and measured after 6 hrs. The data set is classed as organism-based. To be noted: in vivo, po.
A short description of data set [19]: Toxicity in male Wistar rat assessed as gastrointestinal damage by measuring level-3 ulcers with >3 mm area at 50 mg/kg administered by gavage and measured after 6 hrs. It counts as organism-based. To be noted: in vivo, po.
The nature of data set [20]: Toxicity in male Wistar rat assessed as gastrointestinal damage by measuring ulcer index at 50 mg/kg administered by gavage and measured after 6 hrs. The data set is classed as organism-based. The conditions noted are these: in vivo, po.
A short description of data set [21]: Toxicity in male Wistar rat assessed as gastrointestinal damage by measuring ulcer index at 100 mg/kg administered by gavage and measured after 6 hrs. It counts as organism-based. The conditions noted are these: in vivo, po.
Data set [22] in a line: Nephrotoxicity in male Wistar rat assessed as effect on blood urea nitrogen level at 20 mg/kg, po administered for 3 days. It counts as toxicity, organism-based. The conditions noted are these: in vivo, 72 h, time 3 day.
For data set [23], the target named is T1, Cytosolic phospholipase A2 (Mus musculus) (UniProt P47713).
T1 sequence (whole entry): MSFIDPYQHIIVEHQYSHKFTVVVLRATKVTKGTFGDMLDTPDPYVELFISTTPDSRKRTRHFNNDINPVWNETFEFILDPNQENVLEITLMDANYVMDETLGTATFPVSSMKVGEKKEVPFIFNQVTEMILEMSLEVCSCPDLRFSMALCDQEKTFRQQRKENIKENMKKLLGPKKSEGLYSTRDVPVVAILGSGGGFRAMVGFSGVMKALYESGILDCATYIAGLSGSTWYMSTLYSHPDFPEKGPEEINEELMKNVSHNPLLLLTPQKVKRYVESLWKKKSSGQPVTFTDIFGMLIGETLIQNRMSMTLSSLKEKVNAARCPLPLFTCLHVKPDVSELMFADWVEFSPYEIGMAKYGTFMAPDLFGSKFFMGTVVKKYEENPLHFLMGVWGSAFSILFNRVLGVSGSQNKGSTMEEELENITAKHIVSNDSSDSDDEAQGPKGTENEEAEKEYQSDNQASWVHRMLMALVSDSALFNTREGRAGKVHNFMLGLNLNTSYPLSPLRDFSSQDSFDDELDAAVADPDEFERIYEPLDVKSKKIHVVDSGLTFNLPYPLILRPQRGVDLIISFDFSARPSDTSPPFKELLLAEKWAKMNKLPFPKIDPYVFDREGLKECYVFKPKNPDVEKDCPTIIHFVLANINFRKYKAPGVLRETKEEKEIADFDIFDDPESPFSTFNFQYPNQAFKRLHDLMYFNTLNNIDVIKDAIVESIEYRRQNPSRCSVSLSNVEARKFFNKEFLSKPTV
Description: Binding affinity to cPLA2 in LPS-induced mouse RAW264.7 cells assessed as thermal stability at 45 to 53 degreeC at 30 uM pretreated with LPS for 24 hrs followed by compound addition and measured after 2 hrs by CETSA. The data set is classed as cell-based.

SMILES strings stand for the structures. The source made the active and inactive calls. The calls are words filed in the database; no cut-off is given here.

On to `CCCCC/C=C\C/C=C\C/C=C\C/C=C\CC/C=C(/OC(=O)C(C)c1ccc(C(=O)c2ccccc2)cc1)C(F)(F)F` (stereo not drawn), for which the Activity result with RAW264.7 [1] is “Dose-Dependent Effect”; in the data set with RAW264.7 [2] it was “Dose-Dependent Effect”; in the data set on RAW264.7 [3] it was “Dose-Dependent Effect”; in data set [15], 0; in data set [16] it was 0%; in [17] it was 86%. Besides, the Activity in [18] is given as 14%; in data set [19], 0%; in [22], “Non-Toxic”. The outcome in the data set with Rattus norvegicus [4], in the data set on Rattus norvegicus [5], in the data set on Rattus norvegicus [6], in the data set filed under Mus musculus [7], in the data set with Rattus norvegicus [8] and with Rattus norvegicus [9] was Active. Besides, the result (in the data set with Rattus norvegicus [10]; in the data set filed under Mus musculus [11]; in the data set with Rattus norvegicus [12]; with Rattus norvegicus [13]; with Rattus norvegicus [14]; in [23]) was Active. In addition, the results for the UI in [20] and in data set [21] were 0 and 8, respectively.

The record behind these values is ChEMBL document CHEMBL5543086, “Discovery of novel NSAID hybrids as cPLA2/COX-2 dual inhibitors alleviating rheumatoid arthritis via inhibiting p38 MAPK pathway” (Eur J Med Chem, 2024).
